Structures are written as SMILES.

This assay addresses T1, TRPC5 protein (Homo sapiens, UniProt Q9UL62).
T1 sequence (Q9UL62 1-973): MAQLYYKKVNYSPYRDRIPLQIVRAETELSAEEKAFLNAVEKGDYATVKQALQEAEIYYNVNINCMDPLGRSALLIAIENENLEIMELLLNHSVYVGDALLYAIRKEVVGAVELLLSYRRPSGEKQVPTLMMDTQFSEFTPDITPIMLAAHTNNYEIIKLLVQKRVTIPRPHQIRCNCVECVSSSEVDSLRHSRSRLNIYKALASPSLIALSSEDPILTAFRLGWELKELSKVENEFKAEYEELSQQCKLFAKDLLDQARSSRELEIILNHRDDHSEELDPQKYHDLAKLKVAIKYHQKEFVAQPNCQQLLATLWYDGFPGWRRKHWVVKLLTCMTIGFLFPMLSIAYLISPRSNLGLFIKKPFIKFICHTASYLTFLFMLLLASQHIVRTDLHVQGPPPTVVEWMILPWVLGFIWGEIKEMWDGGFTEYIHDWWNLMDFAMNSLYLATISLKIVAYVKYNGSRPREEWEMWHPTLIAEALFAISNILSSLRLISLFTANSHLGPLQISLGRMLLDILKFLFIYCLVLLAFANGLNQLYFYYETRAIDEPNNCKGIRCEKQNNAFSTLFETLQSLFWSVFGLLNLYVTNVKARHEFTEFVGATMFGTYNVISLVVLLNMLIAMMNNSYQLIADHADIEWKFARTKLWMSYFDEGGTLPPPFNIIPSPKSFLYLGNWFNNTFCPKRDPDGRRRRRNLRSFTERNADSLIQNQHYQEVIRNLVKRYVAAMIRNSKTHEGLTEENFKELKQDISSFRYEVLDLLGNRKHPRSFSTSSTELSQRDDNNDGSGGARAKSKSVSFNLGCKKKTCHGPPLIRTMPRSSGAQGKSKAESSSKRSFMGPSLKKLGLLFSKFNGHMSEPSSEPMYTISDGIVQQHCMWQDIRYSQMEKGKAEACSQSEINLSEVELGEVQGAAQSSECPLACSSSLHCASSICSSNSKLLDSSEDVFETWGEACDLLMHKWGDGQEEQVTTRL
Briefly: MST binding to TRPC5 protein. The method, then: Preparation and labelling of protein solution: TRPC6 protein dry powder (Alomone Labs, Israel) was prepared into a protein mother solution at a concentration of 10 μM using PBS-Buffer, and 35 μL of the protein stock solution was taken to the Buffer exchange A column, and centrifuged to obtain the Tris-removed protein. 34 μL Labelling Buffer was added to the Tris-removed protein according to the instructions of the Protein Fluorescent Labelling Kit (model L001). After mixing well, 3 μL of NT-647-NHS fluorescent dye was added and thus obtained mixture was incubated for 20 minutes. The protein-dye mixture was transferred to the purification B column, 300 μL of PBS-Buffer was added, and the target protein, i.e. fluorescent labelled protein TRPC6, was collected by centrifugation (with a final concentration of about 2 μM). 180 μL of target protein was mixed with 1620 μL of PBS-Buffer, and then 9 μl of Tween-20 were added thereto. […]
The binding ability of the compounds of the present invention (as exemplified by the compounds 1-1 and 2-1 obtained in Examples 1 and 3) for other TRPC proteins (e.g., TRPC1, TRPC3, TRPC4, TRPC5, and TRPC7) was determined using the microscale thermophoresis (MST) method. […]
The affinity of the compounds of the present invention with TRPC1, TRPC3, TRPC4, TRPC5 and TRPC7 proteins, respectively, was determined by the same method as in Example 5.

Consider `CC(=O)OCCCNC(=O)c1c(C=O)c2ccccc2n1C` [compound 1-1, propyl 3-[(3-formyl-1-methyl-1H-indole-2-carbonyl)amino]acetate], for which the “Kd for binding to TRPCS protein” value is “cannot be measured”.

As to `Cn1c(C(=O)NCCCOC(=O)c2ccccc2)c(C=O)c2ccccc21` [compound 2-1], the “Kd for binding to TRPCS protein” value was “cannot be measured”.

Source of the values: patent US12692232B2, “Indole carboxamide compound, preparation therefor and use thereof” (NANJING RUISHUNING MEDICAL TECHNOLOGY CO., LTD., priority 2021, dated 2026).
